Test results reported in patent publication US20180104269A1, “COMPOSITION FOR SUPPRESSING MUSCULAR FATTY CHANGE” (SUNTORY HOLDINGS LIMITED, priority 2015, published 2018).

How the values were obtained:
[1] = tested on: myosatellite cells derived from a rat; experiment: Oil red-O staining of oil droplets / count of adipocyte-like cells after adipogenic differentiation culture; assay type: cell-based
Excerpt: (§1) The gastrocnemial muscle, the soleus, the anterior tibial muscle, the extensor digitorum longus muscle, and the quadriceps femoris muscle were extracted from the Fischer 344 rat of 10 to 14 weeks old under anesthesia, and minced. The above tissues were subjected to enzymolysis with Protease (Sigma-Aldrich) and subjected to centrifugal treatment to obtain a precipitate. The obtained precipitate was suspended in Dulbecco's Modified Eagle Medium (DMEM) containing 10% horse fetus serum, and seeded on an 8-well slide glass (BD Thermo Science) so that the myosatellite cells are 5×10^4 to 7×10^4 cells/mL.
(§2) Myosatellite cells isolated by F-10 containing 20% cow serum (GIBCO) was cultured for 72 h. Then, the cells were cultured for 72 h. in an adipogenic induction medium (Lonza) containing 0.1% DMSO (Control), 5 μM quercetin, 10 μM quercetin or 50 μM quercetin. Then, the cells were cultured for 72 h. in an adipogenic maintenance medium (Lonza) containing the control, 5 μM quercetin, 10 μM quercetin or 50 μM quercetin.
After the cultured cells were washed in PBS, they were fixed by 10% formalin (Wako Pure Chemical Industries, Ltd.) at room temperature for 10 min. Then, they were reacted with 10% oil red-O solution (Sigma Aldrich) that was dissolved in 2-propanol at room temperature for 30 min.

[2] = tested on: myosatellite cells derived from a rat; experiment: Quantification of amount of triglyceride in cells after adipogenic differentiation culture; assay type: cell-based; details: 5, 10, 50 μM vs 0 μM
Excerpt: as §1, §2
After the cells that were subjected to adipogenic differentiation culture were washed with PBS, a PBS that contains 5% Triton-X 100 was added as a cell lysate, and the cell solution was collected, heated and cooled. After the cells were centrifuged, triglyceride and protein in the supernatant were quantified. The LabAssay™ Triglyceride (Wako Pure Chemical Industries, Ltd.) was used for the quantification of triglyceride. The Pierce BCA Protein Assay Kit (Thermo Scientific) was used for the quantification of protein. […] The results were tested using the Dunnett's test, and the value of 5% or lower was determined to be the significant amount (*: p<0.05 vs 0 μM. †: p<0.05 vs 5 μM).

[3] = cited from earlier work
[4] = biological target: T1, PPARγ (Homo sapiens, UniProt P37231); details: read-out: IC50 as PPARγ inhibitor; cited from earlier work
T1 sequence (P37231 1-505): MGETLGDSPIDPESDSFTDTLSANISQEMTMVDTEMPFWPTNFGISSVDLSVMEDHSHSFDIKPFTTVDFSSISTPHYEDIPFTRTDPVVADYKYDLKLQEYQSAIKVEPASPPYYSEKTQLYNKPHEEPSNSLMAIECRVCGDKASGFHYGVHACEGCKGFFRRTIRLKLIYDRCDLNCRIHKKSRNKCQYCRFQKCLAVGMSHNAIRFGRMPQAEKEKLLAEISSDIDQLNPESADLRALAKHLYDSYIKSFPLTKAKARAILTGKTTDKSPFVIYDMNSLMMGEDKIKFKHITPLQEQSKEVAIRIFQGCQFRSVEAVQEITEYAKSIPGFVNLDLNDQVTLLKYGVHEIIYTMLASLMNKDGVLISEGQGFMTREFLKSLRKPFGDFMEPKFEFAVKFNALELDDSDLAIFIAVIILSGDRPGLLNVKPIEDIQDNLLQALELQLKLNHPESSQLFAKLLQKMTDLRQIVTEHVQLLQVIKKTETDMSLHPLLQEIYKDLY

[5] = 5 μM, 72 h adipogenic induction medium then 72 h adipogenic maintenance medium, vs control (0.1% DMSO)
[6] = 10 μM, 72 h induction then 72 h maintenance medium
[7] = 50 μM, 72 h induction then 72 h maintenance medium

Structure (SMILES)	number of adipocyte-like cells stained by oil red-O [1, 5]	oil droplets stained by oil red-O [1, 5]	number of adipocyte-like cells stained by oil red-O [1, 6]	number of oil droplets stained by oil red-O [1, 6]	number of adipocyte-like cells stained by oil red-O [1, 7]	number of oil droplets stained by oil red-O [1, 7]	amount of protein in the cells in the well [2]	amount of triglyceride corrected by the amount of protein [2]	amount of triglyceride in cells after adipogenic differentiation ([2]; Dunnett's test)	solubility in water [3]	number of adipocyte-like cells stained by oil red-O ([1]; 1 μM, 72 h induction then 72 h maintenance medium)	IC50 [4]
O=c1c(O)c(-c2ccc(O)c(O)c2)oc2cc(O)cc(O)c12 [quercetin]	no significant decrease	the same level of oil droplets as the control	decreased	decreased in a concentration dependent manner	decreased	decreased in a concentration dependent manner	did not change	decreased in a quercetin concentration dependent manner	decreased in a quercetin-concentration dependent manner	insoluble to water	–	–
O=C(Nc1ccccc1)c1cc([N+](=O)[O-])ccc1Cl [GW9662, reference compound]	did not decrease	–	did not decrease	–	–	–	–	–	–	–	did not decrease	3.3 nM
